pIC50: −log10 of the molar value.
Molecular target: T1, protein kinase D2 (PKD2) (Homo sapiens, UniProt Q9BZL6)
T1 sequence (Q9BZL6 1-878): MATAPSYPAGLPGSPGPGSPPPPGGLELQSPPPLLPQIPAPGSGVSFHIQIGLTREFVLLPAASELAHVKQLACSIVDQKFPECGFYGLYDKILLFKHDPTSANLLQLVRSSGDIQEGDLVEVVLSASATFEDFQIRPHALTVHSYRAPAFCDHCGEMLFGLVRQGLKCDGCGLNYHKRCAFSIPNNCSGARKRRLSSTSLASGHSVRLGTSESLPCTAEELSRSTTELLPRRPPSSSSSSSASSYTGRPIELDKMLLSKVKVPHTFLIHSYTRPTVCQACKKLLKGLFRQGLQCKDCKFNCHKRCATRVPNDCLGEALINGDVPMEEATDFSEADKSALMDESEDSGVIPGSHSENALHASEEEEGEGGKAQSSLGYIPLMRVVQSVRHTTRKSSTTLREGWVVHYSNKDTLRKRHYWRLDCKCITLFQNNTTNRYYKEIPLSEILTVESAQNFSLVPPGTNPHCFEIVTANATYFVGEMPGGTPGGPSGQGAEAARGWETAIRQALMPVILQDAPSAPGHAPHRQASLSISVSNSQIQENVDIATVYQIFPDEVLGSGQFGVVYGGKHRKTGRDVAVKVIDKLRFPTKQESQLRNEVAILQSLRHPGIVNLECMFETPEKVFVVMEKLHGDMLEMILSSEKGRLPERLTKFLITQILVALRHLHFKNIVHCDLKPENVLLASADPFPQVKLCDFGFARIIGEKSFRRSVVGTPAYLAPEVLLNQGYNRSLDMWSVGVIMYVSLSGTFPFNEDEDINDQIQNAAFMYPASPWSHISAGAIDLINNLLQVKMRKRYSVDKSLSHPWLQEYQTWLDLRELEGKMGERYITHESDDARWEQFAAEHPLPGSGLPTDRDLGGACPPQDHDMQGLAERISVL
Assay: IMAP fluorescence polarization kinase assay, peptide substrate phosphorylation
Type: biochemical

SMILES: CC[C@@H](N)CNc1ccnc(-c2cc(-c3cnn(C)c3)ccc2O)n1 [CRT0066101]
- pIC50: 8.60
